In patent US11332477B2, “Nitrogen containing heterocycle substituted benzoxazine oxazolidinone compound and preparation method and use thereof” (INSTITUTE OF MATERIA MEDICA, CHINESE ACADEMY OF MEDICAL …, priority 2017, dated 2022) one finds MIC data, which are given here for seven molecules.

≈ marks a conversion by molar mass, not a printed value. A value given as a limit tells only on which side of the number the result lay.

Experiment [1] concerns Linezolid-resistant strain. In words: microbe, parasite or virus in culture. The format is cell-based. As to conditions: Mycobacterium tuberculosis, read-out: MIC Linezolid-resistant strain.
Experiment [2] has as its system clinically isolated 12525 strains (rifampicin- and isoniazid-resistant strains). Description: microbe, parasite or virus in culture. Type of experiment: cell-based. As to conditions: Mycobacterium tuberculosis, read-out: MIC 12525.

Take `CC(=O)NC[C@@H]1OC(=O)N2c3cc(F)c(N4CCSCC4)cc3OC[C@@H]12` [Compound 4, N-(((3S,3aS)-8-Fluoro-1-oxo-7-thiomorpholino-3a,4-dihydro-1H,3H-benzo[b]oxazolo[3,4-d][1,4]oxazin-3-yl)methyl)acetamide]: the results for the MIC in experiment [1] and in experiment [2] were 0.246 µg/mL (≈ 0.645 µM) and < 0.016 µg/mL, respectively.

`CC(=O)NC[C@@H]1OC(=O)N2c3cc(F)c(N4CC[S+]([O-])CC4)cc3OC[C@@H]12` [Compound 23, N-(((3S,3aS)-8-Fluoro-1-oxo-7-(1-oxidothiomorpholino)-3a,4-dihydro-1H,3H-benzo[b]oxazolo[3,4-d][1,4]oxazin-3-yl)methyl)acetamide]: in experiment [2], the MIC came out at 0.053 µg/mL (≈ 0.133 µM).

As to `CC(=O)NC[C@H]1OC(=O)N2c3cc(F)c(N4CCSCC4)cc3OC[C@H]12` [Compound 28, N-(((3R,3aR)-8-Fluoro-1-oxo-7-thiomorpholino-3a,4-dihydro-1H,3H-benzo[b]oxazolo[3,4-d][1,4]oxazin-3-yl)methyl)acetamide], the figures for the MIC in experiment [1] and in experiment [2] were 3.02 µg/mL (≈ 7.91 µM) and 0.047 µg/mL (≈ 0.123 µM), respectively.

Regarding `CC(=O)NC[C@@H]1OC(=O)N2c3ccc(N4CCOCC4)cc3OC[C@@H]12` [Compound VII, reference compound], the MIC in experiment [1] amounted to 21.6 µg/mL (≈ 62.2 µM); in experiment [2], 0.119 µg/mL (≈ 0.343 µM).

For `CC(=O)NC[C@H]1CN(c2ccc(N3CCOCC3)c(F)c2)C(=O)O1` [Linezolid, reference compound], the MIC in experiment [1] worked out at 4 µg/mL (≈ 11.9 µM); in experiment [2], 0.138 µg/mL (≈ 0.409 µM).

As to `NNC(=O)c1ccncc1` [isoniazid], the MIC in experiment [1] is 0.032 µg/mL (≈ 0.233 µM); in experiment [2], > 40 µg/mL.

Turning to `CO[C@H]1/C=C/O[C@@]2(C)Oc3c(C)c(O)c4c(O)c(c(/C=N/N5CCN(C)CC5)c(O)c4c3C2=O)NC(=O)/C(C)=C\C=C\[C@H](C)[C@H](O)[C@@H](C)[C@@H](O)[C@@H](C)[C@H](OC(C)=O)[C@@H]1C` [rifampicin], the MIC amounted to 0.073 µg/mL (≈ 0.0887 µM) in experiment [1] and 22.4 µg/mL (≈ 27.2 µM) in experiment [2].
